According to a melting point compilation (Tetko et al.; mined from patent text by program, amines drawn as free bases though some values may be those of a salt):

Compound | melting point [°C]
C[C@H](NC(=O)CC#N)C(=O)N1CCC[C@H]1C(=O)Nc1ccccc1 | 183 to 184
CC(C)Oc1c(F)cc2c(O)c(C(=O)NCc3ccc(Cl)cc3)cnc2c1F | 207 to 209
COC(=O)c1cnn(O)c1 | 175
COc1c(Cl)ccc(C(=O)O)c1F | 183 to 184
COc1cc(-c2snnc2C)cc2oc(=O)c(C)c(C)c12 | 204 to 206
COc1cc(CCNC(=O)N(C)O)cc(OC)c1 | 121 to 123
CC(C)C[C@@H](C=O)NC(=O)[C@H](Cc1c[nH]cn1)NC(=O)[C@H](Cc1ccccc1)NC(=O)CCCc1ccccc1 | 98 to 103
CCC1(CC)NC(=O)C(CC)(CC)N1 | 68 to 70
CN1C(=O)C2(COc3cc4c(cc32)OCCO4)c2c(-c3cnn(C)c3)cccc21 (stereo unspecified) | 220 to 222
CN1CCC(c2c(O)cc(O)c3c(=O)cc(Oc4ccccc4)oc23)C(O)C1 (stereo unspecified) | 112
CCN(CC)c1ccc(C(=O)C(C)(C)N2CCOCC2)cc1 | 86 to 89
N#Cc1c(N2CCN(C(=O)c3cccs3)CC2)c2sccc2n(CC(=O)c2ccccc2)c1=O | 300
CCOCC1OC(n2cnc3c(N)nc(Cl)nc32)C(O)C1O (stereo unspecified) | 117 to 119
CCOC(=O)CN1C(=O)CN2CC(=O)NN=C21 | 188 to 193
OCCC1CC2CCN1CC2 (stereo unspecified) | 62 to 64
CN(C)C1CCN(c2cc3ccccc3c(=O)[nH]2)C1 (stereo unspecified) | 233 to 234
COc1cc2c(cc1OC)C(=O)C(Cc1ccncc1)C2 (stereo unspecified) | 192 to 193
COc1cc(C=O)cc(OC)c1OC1OC(COC(C)=O)C(OC(C)=O)C(OC(C)=O)C1NC(C)=O (stereo unspecified) | 222 to 225
O=C(O)C(S)c1cc(Cl)ccc1Cl (stereo unspecified) | 129 to 130
COc1cc2nc(S(=O)(=O)Nc3c(Cl)cccc3Cl)nn2c(OC)n1 | 211 to 212
COc1cc(C=C2SC(=O)NC2=O)cc(OC)c1O | 248 to 249
N#Cc1cc(F)c(N2C(=O)C3CCCCN3C2=O)nc1Cl (stereo unspecified) | 192 to 193
CSC1(C)C(=O)N(C(C)=O)c2ccc(C3=NNC(=O)SC3)cc21 (stereo unspecified) | 198
CCCCNC(=O)n1sc(OCC)nc1=O | 54
CCOc1ccc(CC(=O)NCCc2ccc(OC(C)C)c(OC(C)C)c2)cc1OCC | 71
CCOC(=O)c1c(S(=O)(=O)Cl)nn2c(C)cc(C)nc12 | 128 to 130

Compound | melting point [°C]
N#CC1(C(O)(Cn2cncn2)c2ccccc2)CC1 (stereo unspecified) | 103 to 105
O=C(NS(=O)(=O)N1CCCCC1)C1=NN(c2ccc(Cl)cc2)C(c2ccccc2)C1 (stereo unspecified) | 176 to 179
NNc1ccc(Cl)cn1 | 116 to 122
CC(=O)c1ccc(OC2CCOCC2)cc1O | 99 to 104
COc1ccc(CN(C)CC=Cc2ccc(NC(=O)c3cccc4c(=O)c5cccc(OC)c5[nH]c34)cc2)cc1OC | 200
Cc1ccc(S(=O)(=O)N[C@H](CO)CCO)cc1 | 90 to 92
CN(Sc1ccccc1)C(=O)Oc1cccc2c1OC(C)(C)C2 | 66
COC(=O)c1cc(-n2cnnn2)ccc1OC | 185 to 187
C1=C(c2ccc3ccccc3c2)CCN(Cc2n[nH]c3ccccc23)C1 | 225 to 227
N#Cc1ccc(N2CCC(CO)CC2)c2ccccc12 | 135 to 136
COc1cc([N+](=O)[O-])ccc1S(=O)(=O)n1c(=O)n(C2CCCCC2)c2cc(Cl)ccc21 | 185
COC(=O)C1=C(C)NC(C)=C(P2(=O)OCCCO2)C1c1cccc([N+](=O)[O-])c1 (stereo unspecified) | 221 to 223
CS(=O)(=O)OCC1CCN(C(=O)OCc2ccccc2)CC1 | 72 to 74
CNC(=N[N+](=O)[O-])N(Cc1cnc(Cl)s1)C(=O)C(C)C | 101 to 104
CC(=O)N1CCCCc2ccc(/C=C/CN(C)C)cc21 | 87 to 88
COC1C2=C3C(=CN1OC)OCCC3CC(C(N)=O)C2 (stereo unspecified) | 224 to 226
Cc1cn(C2C=CC(CO)O2)c(=O)[nH]c1=S (stereo unspecified) | 117 to 118
O=C1C=C(Oc2ccc(C(F)(F)F)cc2)C(O)O1 (stereo unspecified) | 87 to 89
COC(=O)C(c1ccc(NC(C)=O)cc1)C1CC1 (stereo unspecified) | 159 to 162
CN(C)CCc1c[nH]c2cc(N(S(=O)(=O)c3cc(Cl)cc(Cl)c3)S(=O)(=O)c3cc(Cl)cc(Cl)c3)ccc12 | 103 to 107
CCCN(CCC)C1CCc2cc(NC(C)=O)ccc2C1 (stereo unspecified) | 119 to 121
Cc1cc(C(N)=O)ncc1C(c1c(F)ccc(F)c1F)S(=O)(=O)CCC(Cl)(Cl)Cl (stereo unspecified) | 173 to 175
COC1=CC(=O)C=C(Br)C1=O | 157 to 158
Cc1c(O[Si](C)(C)C(C)(C)C)cc(O[Si](C)(C)C(C)(C)C)c(C)c1C(=O)OCC(Cl)(Cl)Cl | 90 to 92
C=CCOc1ccc(Cl)cc1NC(=O)Cc1ccc(OC)c(OC2CCCC2)c1 | 75 to 76.5

More lines, now with the values ahead:

melting point [°C] | Compound
306 to 307 | CC(C)(C)c1ccc(C(=O)Nc2cn3nc(-n4cnc(Br)c4)ccc3n2)cc1
70 | CCOC(=O)C(C)(C)Oc1ccc2c(-c3ccc(Cl)cc3)noc2c1
325 | O=C(c1ccc2[nH]c(=O)n(Cc3ccc(F)cc3)c(=O)c2c1)c1nc(Br)c2ccccn12
85 | O=C(Oc1cc(-c2ccccc2)c2ccccc2n1)N1CCCCC1
164 | CCO[C@@H]1c2ccc3c(nc(C)n3C)c2O[C@H](c2ccccc2)[C@H]1OC(=O)C(C)(C)C
127 to 128 | CCCCOc1c(CN2C(=O)c3ccccc3C2=O)n(CC2CC2)c(=O)c2ccc(OCc3ccccc3)cc12
70 to 72 | COc1ccccc1-c1ccc(C)cc1
82 to 84 | O=C1c2ccccc2Cc2ccccc2C1Br (stereo unspecified)
132 to 134 | CCOC(=O)c1ccc(-c2nc3ccccc3s2)cc1
174 to 175 | COC(=O)ONC(=N)Nc1ccc(C(=O)O)cc1
88 to 89 | Cc1ccc(C)c(C(CO)c2ccc(C(C)C)cc2)c1O (stereo unspecified)
156 to 157 | CCOC(=O)C(N)N=Nc1ccc(Br)cc1C(=O)c1ccccn1 (stereo unspecified)
167 to 169 | COc1cc(C(C)C)c2c(c1)S(=O)(=O)N(COC(=O)c1c(C)nn(-c3ccccc3)c1C)C2=O
160 to 161 | CC(C)n1nc(-c2cnc(N)nc2-c2ccccc2C(F)(F)F)ccc1=O
130 | CC(C)(C)OC(=O)c1nc(-c2ccc(Cl)cc2Cl)n(-c2ccc(Cl)cc2)c1S(C)(=O)=O
130 to 131 | CCOC(=O)COc1cccc(-n2nc(-c3ccc(F)cc3)c3cccnc32)c1
100 to 101 | Cc1cc(-c2cc(N)n3nc(-c4ccco4)nc3c2)ccn1
161 to 162 | CC(C)(CO)COc1c(-c2ccc(S(C)(=O)=O)cc2)cnn(-c2ccc(F)c(F)c2)c1=O
89 to 92 | CCC1(CC(O)(CBr)c2ccccc2)C(=O)c2ccccc2C1=O (stereo unspecified)
105 to 106 | CCCCS(=O)(=O)Nc1cccc(OCc2ccc3ccccc3n2)c1
179 to 181 | COc1ccc(-c2c(NC(C)C(C)(C)C)c(=O)c2=O)cc1 (stereo unspecified)
122 to 124 | COc1cc2nc(NCCNCC(O)COc3ccccc3)nc(N)c2cc1OC (stereo unspecified)
154 to 157 | Cc1ccc(S(=O)(=O)C(CC#Cc2ccc(Cl)cc2)C(=O)O)cc1 (stereo unspecified)
136 to 138 | OC(CNCCC1c2ccccc2COc2ccccc21)COc1ccccc1 (stereo unspecified)
143 to 144 | CCCc1ccc(-n2ncc(C#N)c2NC(C)=O)c(Cl)c1

melting point [°C] | Compound
140 to 141 | Cc1sc(-c2ccccc2)nc1COc1ccc(Cn2cc(CC(=O)O)c(-c3ccccc3)n2)cn1
167 | COc1ccc(-c2nc(N)ncc2-c2ccc(=O)n(C(C)C)n2)cc1OC
190 to 191 | COC(=O)c1ccc(=O)n(CCNC(=O)c2ccccc2)c1
121 | COc1ccc(-c2noc(C3CCCN(C(=O)c4ccccc4)C3)n2)cc1 (stereo unspecified)
139 to 141 | COC(=O)[C@H]1C=C(c2ccc(Br)cc2)OC(=O)[C@H]1Cc1ccccc1
160 to 163 | NC(CSc1nc(NCc2ccc3c(c2)OCO3)cc(-c2ccccc2)n1)=NO
130 to 133 | COC(=O)c1cccc2nnsc12
154 to 156 | COc1ccc(-c2cc(CO)c(=O)n(Cc3ccc(F)c(F)c3)n2)cc1F
177 to 178 | CCOC(=O)c1cc(=O)c2c(OCCn3c(=O)sc4ccc(Cl)cc43)cccc2o1
68 to 70 | CCN(CC)Cc1cc(NC(=O)Nc2ccc(Oc3cc(NC)ncn3)cc2)cc(C(F)(F)F)c1
236 to 240 | O=C(O)Cc1ccc(-n2cnc3cnc4ccccc4c32)cc1
130 | O=C(Nc1ccccc1)O[C@@H]1CN=C(c2ccc(Cl)c(Cl)c2)O[C@H]1c1ccccc1 (racemic)
170 to 172 | CCCCOc1cc(C(=O)O)cc(N)c1C(=O)c1ccc(C)cc1
140 to 142 | Cc1nc2ccc(Sc3cccc4cnccc34)cc2o1
158 to 161 | Cc1ccc2cccc(OCc3cccc(N(C)C(=O)CN4C(=O)c5ccccc5C4=O)c3C)c2n1
246 to 247 | COc1cc(Nc2nccc(-c3ccc(-c4nnn[nH]4)cc3)n2)cc(OC)c1OC
112 | COc1ccc(S(=O)(=O)c2ccccn2)cc1
225 to 230 | CN(Cc1ccc(C(=O)Nc2ccc(Nc3cc(-c4cccc5c4oc4ccccc45)ncn3)cc2)cc1)C(=O)OC(C)(C)C
195 to 197 | Cc1nc2c(N)nc3ccccc3c2o1
84 | CC1C(=O)N(c2ccccc2)C(=S)N1c1ccc(Sc2ccccc2)cc1 (stereo unspecified)
74 to 76 | CCCOC(=O)c1ccc(CCCCOCCCCCNCC(O)c2ccc(O)c(NS(C)(=O)=O)c2)cc1 (stereo unspecified)
94.5 to 96 | O=C(NC(C(=O)OCc1ccccc1)C(=O)C1CC1)c1ccc(F)cc1 (stereo unspecified)
201 to 203 | Cc1cc(C)c(Nc2nc(C)ncc2S(=O)(=O)c2ccc(-c3ccccn3)cc2)c(C)c1
157 to 158 | CCCCC(=O)C(C)(C)N1COC(C)=C(c2ccccc2)C1=O
263 | Cc1c(F)cccc1Cc1c(-c2ccccc2)c2ccccn2c1C(=O)N1CCN(C(=O)OC(C)(C)C)CC1
